One experiment deals with P. aeruginosa PAO1. The experiment can be described thus: Susceptibility Testing (MIC, broth microdilution). It is filed as cell-based, Pseudomonas aeruginosa. The following applies: Pseudomonas aeruginosa, PAO1, 20 h, P. aeruginosa PAO1, broth microdilution, 20 hours; read-out: PAO1 MIC. Put shortly:
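Broth microdilution per CLSI in cation-adjusted Mueller-Hinton broth, inoculum ~5×10^5 CFU/mL, two-fold compound dilutions (1% DMSO final). Plates incubated 20 h in ambient air at 35° C. MIC is the lowest concentration preventing visible growth, confirmed by OD 600 nm reading.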
In general terms: Dilution methods test growth across graded concentrations, often in twofold steps.

A further experiment has as its target P. aeruginosa LpxC (Pseudomonas aeruginosa (strain ATCC 15692 / DSM 22644 / CIP 104116 / JCM 14847 / LMG 12228 / 1C / PRS 101 / PAO1), UniProt P47205). Description: P. aeruginosa LpxC Inhibition Assay. It is filed as biochemical. To be noted: 2 μM substrate, LC-MS/MS. In short, it runs like this:
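Compounds pre-incubated 30 min at room temperature with 1 nM LpxC, then 2 μM UDP-3-O-(R-3-hydroxydecanoyl)-GlcNAc added; 20 min reaction in 50 mM sodium phosphate pH 7.5, 0.005% Triton X-100, quenched with HOAc. Product quantified by LC-MS/MS against calibration curve; IC50 from four-parameter logistic fit.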

Setting [1] is: 1 nM P. aeruginosa LpxC, read-out: PA LpxC IC50.

Converted amounts (≈) assume the structure as drawn. Read-outs that look alike come from different tables or passages of the source.

Turning to `Cc1ccc(-c2ccc(C3=NO[C@@H](C[C@](C)(C(=O)NO)S(C)(=O)=O)C3)cc2)cn1` [Compound 67, (R)—N-hydroxy-2-methyl-3-((R)-3-(4-(6-methylpyridin-3-yl)phenyl)-4,5-dihydroisoxazol-5-yl)-2-(methylsulfonyl) propanamide], in the experiment on P. aeruginosa PAO1, the MIC was found to be 0.35 µg/mL (≈ 0.838 µM). The IC50 at P. aeruginosa LpxC (setting [1]) is under 0.5 nM.
As for `Cn1cc(-c2ccc(C3=NO[C@@H](C[C@](C)(C(=O)NO)S(C)(=O)=O)C3)cc2)ccc1=O` [Compound 68, (R)—N-hydroxy-2-methyl-3-((R)-3-(4-(1-methyl-6-oxo-1,6-dihydropyridin-3-yl)phenyl)-4,5-dihydroisoxazol-5-yl)-2-(methylsulfonyl)propanamide], in the experiment with P. aeruginosa PAO1, the MIC worked out at 16 µg/mL (≈ 36.9 µM). At P. aeruginosa LpxC (PA LpxC IC50, 1 nM P. aeruginosa LpxC), this compound yielded an IC50 of 2 nM.
As for `CC(C)(C#N)c1ccc(-c2ccc(C3=NO[C@@H](C[C@](C)(C(=O)NO)S(C)(=O)=O)C3)cc2)cc1` [Compound 69, (R)-3-((R)-3-(4′-(2-cyanopropan-2-yl)-[1,1′-biphenyl]-4-yl)-4,5-dihydroisoxazol-5-yl)-N-hydroxy-2-methyl-2-(methylsulfonyl)propanamide], the minimal inhibitory concentration (MIC) with P. aeruginosa PAO1 came out at 0.71 µg/mL (≈ 1.51 µM). Also, the IC50 on P. aeruginosa LpxC (setting [1]) is under 0.5 nM.
`C[C@@](C[C@H]1CC(c2ccc(-c3ccnc(C(F)(F)F)c3)cc2)=NO1)(C(=O)NO)S(C)(=O)=O` [Compound 70, (R)—N-hydroxy-2-methyl-2-(methylsulfonyl)-3-((R)-3-(4-(2-(trifluoromethyl)pyridin-4-yl)phenyl)-4,5-dihydroisoxazol-5-yl)]: in the experiment with P. aeruginosa PAO1, the MIC came out at 8 µg/mL (≈ 17 µM). In addition, at P. aeruginosa LpxC (setting [1]), the half-maximal inhibitory concentration (IC50) amounted to 2 nM.
As for `CCc1cc(-c2ccc(C3=NO[C@@H](C[C@](C)(C(=O)NO)S(C)(=O)=O)C3)cc2)ccn1` [Compound 71, (R)-3-((R)-3-(4-(2-ethylpyridin-4-yl)phenyl)-4,5-dihydroisoxazol-5-yl)-N-hydroxy-2-methyl-2-(methylsulfonyl)propanamide], the minimal inhibitory concentration (MIC) in the experiment with P. aeruginosa PAO1 was determined as 0.71 µg/mL (≈ 1.65 µM). Besides, the 50% inhibitory concentration (IC50) on P. aeruginosa LpxC (setting [1]) is 6 nM.
Taken in the same sequence, the figures for `C[S+]([O-])c1ccc(-c2ccc(C3=NO[C@@H](C[C@](C)(C(=O)NO)S(C)(=O)=O)C3)cc2)cc1` (stereo partly drawn) [Compound 74, (2R)—N-hydroxy-2-methyl-3-((5R)-3-(4′-(methylsulfinyl)-[1,1′-biphenyl]-4-yl)-4,5-dihydroisoxazol-5-yl)-2-(methylsulfonyl) propanamide] were 0.71 µg/mL (≈ 1.53 µM) and under 0.5 nM.
Taken in the same sequence, the figures for `COC(CO)c1ccc(-c2ccc(C3=NO[C@@H](C[C@](C)(C(=O)NO)S(C)(=O)=O)C3)cc2)cc1` (stereo partly drawn) [Compound 75, (2R)—N-hydroxy-3-((5R)-3-(4′-(2-hydroxy-1-methoxyethyl)-[1,1′-biphenyl]-4-yl)-4,5-dihydroisoxazol-5-yl)-2-methyl-2-(methylsulfonyl)propanamidepropanamide] were 0.5 µg/mL (≈ 1.05 µM) and under 0.5 nM.
Taken in the same sequence, the figures for `C[C@@](C[C@H]1CC(c2ccc(-c3ccc(S(C)(=N)=O)cc3)cc2)=NO1)(C(=O)NO)S(C)(=O)=O` (stereo partly drawn) [Compound 76, (2R)—N-hydroxy-2-methyl-3-((5R)-3-(4′-(S-methylsulfonimidoyl)-[1,1′-biphenyl]-4-yl)-4,5-dihydroisoxazol-5-yl)-2-(methylsulfonyl)propanamide] were 2 µg/mL (≈ 4.17 µM) and under 0.5 nM.
Consider `C[C@@](C[C@H]1CC(c2ccc(-c3ccc(-n4nccn4)cc3)cc2)=NO1)(C(=O)NO)S(C)(=O)=O` [Compound 77, (R)-3-((R)-3-(4′-(2H-1,2,3-triazol-2-yl)-[1,1′-biphenyl]-4-yl)-4,5-dihydroisoxazol-5-yl)-N-hydroxy-2-methyl-2-(methylsulfonyl)propanamide], for which the minimum inhibitory concentration (MIC) in the experiment with P. aeruginosa PAO1 was found to be 2 µg/mL (≈ 4.26 µM). Also, the IC50 on P. aeruginosa LpxC (setting [1]) is under 0.5 nM.
Taken in the same sequence, the figures for `C[C@@](C[C@H]1CC(c2ccc(-c3ccncc3)cc2)=NO1)(C(=O)NO)S(C)(=O)=O` [Compound 78, (R)-3-((R)-3-(4-(pyridin-4-yl)phenyl)-4,5-dihydroisoxazol-5-yl)-N-hydroxy-2-methyl-2-(methylsulfonyl)propanamide] were 1 µg/mL (≈ 2.48 µM) and under 0.5 nM.
Taken in the same sequence, the figures for `COc1cc(F)c(-c2ccc(C3=NO[C@@H](C[C@](C)(C(=O)NO)S(C)(=O)=O)C3)cc2)c(F)c1` [Compound 79, (R)-3-((R)-3-(2′,6′-difluoro-4′-methoxy-[1,1′-biphenyl]-4-yl)-4,5-dihydroisoxazol-5-yl)-N-hydroxy-2-methyl-2-(methylsulfonyl)propanamide] were 0.35 µg/mL (≈ 0.747 µM) and under 0.5 nM.
Taken in the same sequence, the figures for `CC(C)(O)c1cc(-c2ccc(C3=NO[C@@H](C[C@](C)(C(=O)NO)S(C)(=O)=O)C3)cc2)ccn1` [Compound 81, (R)—N-hydroxy-3-((R)-3-(4-(2-(2-hydroxypropan-2-yl)pyridin-4-yl)phenyl)-4,5-dihydroisoxazol-5-yl)-2-methyl-2-(methylsulfonyl)propanamide] were 16 µg/mL (≈ 34.7 µM) and 2 nM.
For `C[C@@](C[C@H]1CC(c2ccc(-c3ccncc3Cl)cc2)=NO1)(C(=O)NO)S(C)(=O)=O` [Compound 82, (R)-3-((R)-3-(4-(3-chloropyridin-4-yl)phenyl)-4,5-dihydroisoxazol-5-yl)-N-hydroxy-2-methyl-2-(methylsulfonyl)propanamide], in the experiment with P. aeruginosa PAO1, the MIC worked out at 0.35 µg/mL (≈ 0.799 µM). Further, the IC50 on P. aeruginosa LpxC (setting [1]) was under 0.5 nM.
Taken in the same sequence, the figures for `C[C@@](C[C@H]1CC(c2ccc(-c3cnccc3F)cc2)=NO1)(C(=O)NO)S(C)(=O)=O` [Compound 83, (R)-3-((R)-3-(4-(4-fluoropyridin-3-yl)phenyl)-4,5-dihydroisoxazol-5-yl)-N-hydroxy-2-methyl-2-(methylsulfonyl)propanamide] were 1 µg/mL (≈ 2.37 µM) and under 0.5 nM.
The like results for `CC(C)(O)c1ccc(-c2ccc(C3=NO[C@@H](C[C@](C)(C(=O)NO)S(C)(=O)=O)C3)cc2)cn1` [Compound 84, (R)—N-hydroxy-3-((R)-3-(4-(6-(2-hydroxypropan-2-yl)pyridin-3-yl)phenyl)-4,5-dihydroisoxazol-5-yl)-2-methyl-2-(methylsulfonyl)propanamide] were, in that order, 1 µg/mL (≈ 2.17 µM) and under 0.5 nM.
Taken in the same sequence, the figures for `Cc1cnccc1-c1ccc(C2=NO[C@@H](C[C@](C)(C(=O)NO)S(C)(=O)=O)C2)cc1` [Compound 85, (R)-3-((R)-3-(4-(3-methylpyridin-4-yl)phenyl)-4,5-dihydroisoxazol-5-yl)-N-hydroxy-2-methyl-2-(methylsulfonyl)propanamide] were 0.5 µg/mL (≈ 1.2 µM) and under 0.5 nM.
Take `CO[C@@H](CO)Cc1ccc(-c2ccc(C3=NO[C@@H](C[C@](C)(C(=O)NO)S(C)(=O)=O)C3)cc2)cc1` [Compound 86, (R)—N-hydroxy-3-((R)-3-(4′-((R)-3-hydroxy-2-methoxypropyl)-[1,1′-biphenyl]-4-yl)-4,5-dihydroisoxazol-5-yl)-2-methyl-2-(methylsulfonyl)propanamide]: the MIC in the experiment on P. aeruginosa PAO1 turned out to be 0.35 µg/mL (≈ 0.713 µM). Also, the concentration for half-maximal inhibition (IC50) on P. aeruginosa LpxC (setting [1]) is under 0.5 nM.
Taken in the same sequence, the figures for `Cc1cc(CO)ccc1-c1ccc(C2=NO[C@@H](C[C@](C)(C(=O)NO)S(C)(=O)=O)C2)cc1` [Compound 87, (R)—N-hydroxy-3-((R)-3-(4′-(hydroxymethyl)-2′-methyl-[1,1′-biphenyl]-4-yl)-4,5-dihydroisoxazol-5-yl)-2-methyl-2-(methylsulfonyl)propanamide] were 0.25 µg/mL (≈ 0.56 µM) and under 0.5 nM.
Taken in the same sequence, the figures for `C[C@@H](O)Cc1cc(F)c(-c2ccc(C3=NO[C@@H](C[C@](C)(C(=O)NO)S(C)(=O)=O)C3)cc2)c(F)c1` [Compound 88, (R)-3-((R)-3-(2′,6′-difluoro-4′-((R)-2-hydroxypropyl)-[1,1′-biphenyl]-4-yl)-4,5-dihydroisoxazol-5-yl)-N-hydroxy-2-methyl-2-(methylsulfonyl) propanamide] were 0.25 µg/mL (≈ 0.503 µM) and under 0.5 nM.
The like results for `C[C@@H](O)Cc1ccc(-c2ccc(C3=NO[C@@H](C[C@](C)(C(=O)NO)S(C)(=O)=O)C3)cc2)c(F)c1` [Compound 89, (R)-3-((R)-3-(2′-fluoro-4′-((R)-2-hydroxypropyl)-[1,1′-biphenyl]-4-yl)-4,5-dihydroisoxazol-5-yl)-N-hydroxy-2-methyl-2-(methylsulfonyl) propanamide] were, in that order, 0.71 µg/mL (≈ 1.48 µM) and under 0.5 nM.
With `Cc1cc(C[C@@H](C)O)ccc1-c1ccc(C2=NO[C@@H](C[C@](C)(C(=O)NO)S(C)(=O)=O)C2)cc1` [Compound 90, (R)-3-((R)-3-(2′-methyl-4′-((R)-2-hydroxypropyl)-[1,1′-biphenyl]-4-yl)-4,5-dihydroisoxazol-5-yl)-N-hydroxy-2-methyl-2-(methylsulfonyl) propanamide], the MIC with P. aeruginosa PAO1 came out at 0.5 µg/mL (≈ 1.05 µM). Besides, the concentration for half-maximal inhibition (IC50) on P. aeruginosa LpxC (setting [1]) is under 0.5 nM.
The like results for `C[C@@](C[C@H]1CC(c2ccc(-c3ccsc3)cc2)=NO1)(C(=O)NO)S(C)(=O)=O` [Compound 91, (R)—N-hydroxy-2-methyl-2-(methylsulfonyl)-3-((R)-3-(4-(thiophen-3-yl)phenyl)-4,5-dihydroisoxazol-5-yl)propanamide] were, in that order, 0.125 µg/mL (≈ 0.306 µM) and under 0.5 nM.
The like results for `C[C@@](C[C@H]1CC(c2ccc(-c3cnsc3)cc2)=NO1)(C(=O)NO)S(C)(=O)=O` [Compound 92, (R)—N-hydroxy-3-((R)-3-(4-(isothiazol-4-yl)phenyl)-4,5-dihydroisoxazol-5-yl)-2-methyl-2-(methylsulfonyl)propanamide] were, in that order, 0.35 µg/mL (≈ 0.855 µM) and under 0.5 nM.

A word on the MIC: it is the lowest concentration that inhibits growth of the organism. The term IC50 denotes the concentration needed to halve the response being measured.
